According to PubChem BioAssay AID328 (DTP/NCI, 2004):
Values joined by “and” are separate entries in the source; they are usually repeats but may differ in a detail not shown here. Equal values may be shown once. Toxic doses and inconclusive results are not listed.

Test system: BDF1 mice, P388 leukemia ip, median survival T/C
Assay: NCI In Vivo Anticancer Drug Screen. Data for tumor model P388 Leukemia (intraperitoneal) in B6D2F1 (BDF1) mice
Settings: endpoint: median survival time, higher = longer survival
Outline: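 Survival ratio, drug arm over vehicle arm, in mice with a transplanted tumour.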

[1] = dose: 100.0 mg/kg/injection, schedule: Q01DX009 (ip), vehicle: Klucel (hydroxypropylcellulose) (HPC)
[2] = dose: 200.0 mg/kg/injection, schedule: Q01DX009 (ip), vehicle: Klucel (hydroxypropylcellulose) (HPC)
[3] = dose: 400.0 mg/kg/injection, schedule: Q01DX009 (ip), vehicle: Klucel (hydroxypropylcellulose) (HPC)
[4] = dose: 100.0 mg/kg/injection, schedule: Q04DX003 (ip), vehicle: saline with Tween-80
[5] = dose: 200.0 mg/kg/injection, schedule: Q04DX003 (ip), vehicle: saline with Tween-80
[6] = dose: 400.0 mg/kg/injection, schedule: Q04DX003 (ip), vehicle: saline with Tween-80
[7] = dose: 50.0 mg/kg/injection, schedule: Q01DX009 (ip), vehicle: saline with Tween-80
[8] = dose: 100.0 mg/kg/injection, schedule: Q01DX009 (ip), vehicle: saline with Tween-80
[9] = dose: 200.0 mg/kg/injection, schedule: Q01DX009 (ip), vehicle: saline with Tween-80

Q: With CNC(=O)C(C)(C)c1ccccc1 as the compound, how does the T/C [1] read?
A: The T/C was 90 % of control.

Q: What about the T/C [2] of the same compound?
A: Its T/C is 90 % of control.

Q: What about the T/C [3] of the same compound?
A: The T/C was 104 % of control.

Q: With O=C(c1ccccn1)C12CC3CC(CC(C3)C1)C2 as the compound, how does the T/C [4] read?
A: The T/C was 95 % of control.

Q: And the T/C [5]?
A: The T/C was 105 % of control.

Q: What about the T/C [6] of the same compound?
A: The T/C was 95 % of control.

Q: Which results are given for CCOC(=O)/C=C(C)/C=C/C=C(C)/C=C/c1c(C)cc(OC)c(C)c1C?
A: T/C [7]: 96 % of control; T/C [8]: 91 % of control; T/C [9]: 98 % of control

Q: For CCCC(O)(CCC)CC1=NC(C)(C)CO1, which T/C (dose: 75.0 mg/kg/injection, schedule: Q04DX003 (ip), vehicle: saline sonified) is on record?
A: Its T/C is 110 % of control.

Q: And the T/C (dose: 150.0 mg/kg/injection, schedule: Q04DX003 (ip), vehicle: saline sonified)?
A: The T/C was 105 % of control.

Q: And the T/C (dose: 300.0 mg/kg/injection, schedule: Q04DX003 (ip), vehicle: saline sonified)?
A: The T/C was 100 % of control.

Q: With CC(=O)Oc1cccnc1C(C#N)C#N as the compound, how does the T/C (dose: 50.0 mg/kg/injection, schedule: Q01DX005 (ip), vehicle: saline with Tween-80) read?
A: The T/C was 92 % of control.

Q: For CC(=O)OCC(=O)[C@@]1(O)CC[C@H]2[C@@H]3C=C(C)C4=CC(=O)CC[C@]4(C)[C@H]3[C@@H](O)C[C@@]21C, which T/C [8] is on record?
A: Its T/C is 108 % of control.

Q: And the T/C [4]?
A: The T/C was 95 % of control.

Q: What about the T/C [9] of the same compound?
A: Its T/C is 91 % of control.

Q: And the T/C [5]?
A: Its T/C is 95 % of control.

Q: And the T/C (dose: 400.0 mg/kg/injection, schedule: Q01DX009 (ip), vehicle: saline with Tween-80)?
A: The T/C was 108 % of control.

Q: And the T/C [6]?
A: The T/C was 95 % of control.

Q: For O=C1c2ccccc2C(=O)N1C1CCC(O)CC1 (stereo not given), which T/C (dose: 25.0 mg/kg/injection, schedule: Q01DX009 (ip), vehicle: saline with Tween-80) is on record?
A: Its T/C is 109 % of control.

Q: And the T/C (dose: 25.0 mg/kg/injection, schedule: Q04DX003 (ip), vehicle: saline with Tween-80)?
A: The T/C was 104 % of control.

Q: And the T/C [7]?
A: Its T/C is 86 % of control.

Q: What about the T/C (dose: 50.0 mg/kg/injection, schedule: Q04DX003 (ip), vehicle: saline with Tween-80) of the same compound?
A: The T/C was 109 % of control.

Q: And the T/C [8]?
A: Its T/C is 90 % of control.

Q: What about the T/C [4] of the same compound?
A: The T/C was 104 % of control.

Q: How did the T/C (dose: 1.56 mg/kg/injection, schedule: Q04DX003 (ip), vehicle: saline with Tween-80) turn out when CCc1ccc2c(c1)N(CCCN(CCCl)CCCl)c1ccccc1S2 was run?
A: The T/C was 102 % of control and 104 % of control.

Q: What about the T/C (dose: 3.12 mg/kg/injection, schedule: Q04DX003 (ip), vehicle: saline with Tween-80) of the same compound?
A: The T/C was 93 % of control and 104 % of control.

Q: And the T/C (dose: 6.25 mg/kg/injection, schedule: Q04DX003 (ip), vehicle: saline with Tween-80)?
A: The T/C was 118 % of control.

Q: And the T/C (dose: 12.5 mg/kg/injection, schedule: Q04DX003 (ip), vehicle: saline with Tween-80)?
A: The T/C was 163 % of control.

Q: What does the source list for CCOC(=O)CNCc1cccnc1?
A: T/C (dose: 100.0 mg/kg/injection, schedule: Q04DX003 (ip), vehicle: saline): 120 % of control; T/C (dose: 200.0 mg/kg/injection, schedule: Q04DX003 (ip), vehicle: saline): 117 % of control; T/C (dose: 400.0 mg/kg/injection, schedule: Q04DX003 (ip), vehicle: saline): 118 % of control

Q: C[n+]1ccccc1/C=C/c1cccc(O)c1 was tested. Which T/C (dose: 3.12 mg/kg/injection, schedule: Q01DX009 (ip), vehicle: Klucel (hydroxypropylcellulose) (HPC)) did it give?
A: Its T/C is 96 % of control.

Q: And the T/C (dose: 6.25 mg/kg/injection, schedule: Q01DX009 (ip), vehicle: Klucel (hydroxypropylcellulose) (HPC))?
A: Its T/C is 96 % of control.

Q: And the T/C (dose: 12.5 mg/kg/injection, schedule: Q01DX009 (ip), vehicle: Klucel (hydroxypropylcellulose) (HPC))?
A: The T/C was 102 % of control.

Q: What about the T/C (dose: 25.0 mg/kg/injection, schedule: Q01DX009 (ip), vehicle: Klucel (hydroxypropylcellulose) (HPC)) of the same compound?
A: Its T/C is 102 % of control.

Q: With C#CCCOC(=O)Nc1ccccc1 as the compound, how does the T/C [1] read?
A: Its T/C is 100 % of control.

Q: And the T/C [2]?
A: The T/C was 90 % of control.

Q: And the T/C [3]?
A: The T/C was 90 % of control.

Q: COC(=O)Nc1nc2ccc(C(=O)c3cccs3)cc2[nH]1 was tested. Which T/C (dose: 20.0 mg/kg/injection, schedule: Q01DX009 (ip), vehicle: saline with Tween-80) did it give?
A: The T/C was 117 % of control.

Q: And the T/C (dose: 21.6 mg/kg/injection, schedule: Q04DX003 (ip), vehicle: other)?
A: Its T/C is 167 % of control.

Q: And the T/C (dose: 22.0 mg/kg/injection, schedule: Q04DX003 (ip), vehicle: other)?
A: Its T/C is 153 % of control.

Q: And the T/C (dose: 36.0 mg/kg/injection, schedule: Q04DX003 (ip), vehicle: other)?
A: The T/C was 199 % of control.

Q: What about the T/C (dose: 40.0 mg/kg/injection, schedule: Q01DX009 (ip), vehicle: saline with Tween-80) of the same compound?
A: The T/C was 183 % of control.

Q: And the T/C (dose: 50.0 mg/kg/injection, schedule: Q04DX003 (ip), vehicle: Klucel (hydroxypropylcellulose) (HPC))?
A: Its T/C is 163 % of control and 173 % of control.

Q: What about the T/C (dose: 60.0 mg/kg/injection, schedule: Q01DX009 (ip), vehicle: saline with Tween-80) of the same compound?
A: Its T/C is 225 % of control.

Q: And the T/C (dose: 60.0 mg/kg/injection, schedule: Q04DX003 (ip), vehicle: other)?
A: The T/C was 274 % of control.

Q: What about the T/C (dose: 75.0 mg/kg/injection, schedule: Q04DX003 (ip), vehicle: Klucel (hydroxypropylcellulose) (HPC)) of the same compound?
A: Its T/C is 173 % of control and 175 % of control.

Q: And the T/C (dose: 75.0 mg/kg/injection, schedule: Q04DX003 (ip), vehicle: saline with Tween-80)?
A: The T/C was 193 % of control.

Q: What about the T/C (dose: 100.0 mg/kg/injection, schedule: Q04DX003 (ip), vehicle: Klucel (hydroxypropylcellulose) (HPC)) of the same compound?
A: The T/C was 165 % of control and 184 % of control.
